Test [1] relates to NRAS G13D-mutant mouse melanoma (SW1) tumors. Put plainly: SW1 mouse melanoma model ± oral L-fucose: tumor growth, tumor fucosylation, itIC and splenic flow cytometric profiling. Conditions: oral L-fuc. In kind it is in vivo, C3H/HeN mice. As to the method: Tumors of SW1 or SM1 melanoma cells from […] or C57BL/6 mice, respectively) were digested using 1× tumor digest buffer (0.5 mg/mL Collagenase I, 0.5 mg/mL Collagenase IV, 0.25 mg/mL Hyalyronidase V, 0.1 mg/mL DNAse I in HBSS (Millipore Sigma (St. Louis, MO)). Tumors were homogenized using the Miltenyi MACs dissociator. Red blood cells were lysed using ACK lysis buffer (Life Technologies, (Grand Island, NY)). Tumor homogenate cells were counted using a standard hemocytometer.
Total TILs were gated first to single cells (based on forward scatter height vs width, followed by side scatter height vs. width). Live cells were gated from the Zombie negative population from the population above. TILs were gated based on splenocyte size from a control spleen. Individual immune subpopulations were sub-gated from the total TIL population using the following staining criteria: CD3+ for CD3+ T cells; CD3+/CD4+/CD8− for CD4+T cells; CD3+/CD4−/CD8+ for CD8+ T cells, CD11c+/CD11b+ for DCs; either NK1.1 (for C57/BL6 mice) or DX5 (for C3H/HeJ) for NK cells; CD11b+/GR1+ for MDSC-like cells; and F4/80+ for macrophages. Single-cell suspensions from tumor and spleen tissue were stained with Live/Dead Zombie NIR (Biolegend, (San Diego, CA)) at 1:1,000 in PBS for 20 min. Cell suspensions were spun down and stained with the following with antibodies at 0.5 μg/ml per antibody: APC anti-mouse CD3, Pacific Blue anti-mouse CD4, BV785 anti-mouse CD8, PerCP anti-mouse CD25, FITC anti-mouse F4/80, PeCy7 anti-mouse CD11c, PE anti-mouse NK1.1 or PE anti-mouse DX5, and PerCP-Cy5.5 anti-mouse CD11 b. After staining, the cells were washed and fixed (2% formaldehyde), followed by another wash and flow cytometric analysis. The compensation controls were prepared using 0.5 μg/mL of each antibody with UltraComp eBeads, (ThermoFisher Scientific (Waltham, MA)). All samples were subject to flow cytometric profiling using a LSR Flow Cytometer (BD Biosciences (San Jose, CA)) and analysis as indicated using FlowJo software (BD Biosciences (San Jose, CA)).
For assessment of mouse tumor fucosylation, FFPE tumor sections were immunostained with FITC-conjugated AAL lectin (0.4 μg/mL, Vector Laboratories (Burlingame, CA)) and rabbit anti-Mart1+rabbit anti-S100 (melanoma marker cocktail). The slides were mounted with Vectashield+DAPI (Vector Laboratories (Burlingame, CA)). Four representative microscopy images per tumor were acquired using a Keyence BZ-X710, and images were process and analyzed using FIJI (NIH) as follows: melanoma marker-positive regions were assigned as regions of interest (ROI) in which we measured Integrated density of AAL signal. Integrated densities of control tumors were assigned as 1, and Integrated AAL density values of experimental tumors were divided by control to produce relative fold changes and plotted as column charts. […]
In general terms: A flow cytometer gives signals particle by particle.

The next test concerns SW1 tumors. Put plainly: NSG melanoma model: SW1 tumor growth in immunodeficient mice. In kind it is in vivo. The text has this:
All animals were housed at the Vincent A. Stabile Research building animal facility at H. Lee Moffitt Cancer Center & Research Institute, which is fully accredited by the Association for Assessment and Accreditation of Laboratory Animal Care International (AAALAC, #434), and are managed in accordance with the Guide for the Care and Use of Laboratory Animals (“The Guide”), the Animal Welfare Regulations Title 9 Code of Federal Regulations Subchapter A, “Animal Welfare”, Parts 1-3 (AWR), the Public Health Service Policy on Humane Care and Use of Laboratory Animals (PHS Policy), and by the USF Institutional Animal Care and Use Committee's Principles and Procedures of Animal Care and Use (IACUC Principles). The experiments and protocols detailed in this study received institutional approval by the Moffitt IACUC (RIS00001625). Four-to-six-week-old female C3H/HeN and male C57BL6 mice were purchased from Charles Rivers Laboratories for the indicated experiments. Four-to-six-week-old male NSG mice from the Lau laboratory breeding colony were used for the indicated experiments. Power calculations were used to determine mouse cohort sizes to detect significant changes in tumor sizes. […] Mouse tumor volumes were measured using length, width and depth divided by 2. […]

The test system of another test is TUBO (mouse BC). The test can be described thus: TUBO breast cancer growth in immunodeficient mice ± L-fuc. It is filed as in vivo. Particulars: immunodeficient NSG mice ± 500 mM L-fuc (FIG. 3A).

Turning to `C[C@H](O)[C@@H](O)[C@@H](O)[C@H](O)C=O` [L-fucose], in test [1], the “CD4+ and CD8+ T cells of total itICs” value is on record as “doubled”; the “increase of total itICs” value was 10-50 fold; the “increase of tumor fucosylation” value is listed as approximately 2 fold; the “reduction of tumor growth” value is approximately 50%. In addition, in test [1], the splenic lymphocyte profiles entry is “without altering”. The SW1 tumor growth entry in the test on SW1 tumors is “did not reduce”. The TUBO tumor growth entry in the test on TUBO (mouse BC) is listed as “not effected”.

Values taken from patent publication US20240197761A1, “FUCOSYLATION AND IMMUNE MODULATION IN CANCER” (H. LEE MOFFITT CANCER CENTER AND RESEARCH INSTITUTE, INC., priority 2021, published 2024).
